In one experiment the test system is E. faecalis 6. Kind of experiment: MIC, agar dilution method in Mueller Hinton agar. In kind it is cell-based. To be noted: inoculum 10^4 CFU/spot. How it is done:
(§1) Representative compounds of the present invention were tested. In vitro activity was determined by minimum inhibitory concentration in a microorganism spectrum by the agar dilution method in Mueller Hinton agar, inoculum=10^4 CFU/spot.
For orientation: In agar dilution the substance is mixed into plates at graded concentrations.

A further experiment relates to S. aureus 270A (MRSA). The experiment is described as follows: MIC, agar dilution method in Mueller Hinton agar. The conditions noted are these: inoculum 10^4 CFU/spot. Format: cell-based. As to the method:
as §1

The next experiment concerns S. aureus 6538 (MSSA). Kind of experiment: MIC, agar dilution method in Mueller Hinton agar. Format: cell-based. To be noted: inoculum 10^4 CFU/spot. How it is done:
as §1

The next experiment relates to S. pneumoniae 907. The experiment is described as follows: MIC, agar dilution method in Mueller Hinton agar. In kind it is cell-based. The conditions noted are these: inoculum 10^4 CFU/spot. As to the method: as §1
The test system of another experiment is S. aureus 42080 (MRSA). Kind of experiment: MIC against MRSA alone or in combination with imipenem or compound X, agar dilution. In kind it is cell-based, Staphylococcus aureus. To be noted: inoculum 10^5 CFU/spot; for MIC: Staphylococcus aureus, MRSA. An excerpt:
(§2) For example, the combination with carbapenem antibiotics such as imipenem, or with β-lactamase-inhibitors such as (Z)-(2S,3S,5R)-3-(2-cyanoethenyl)-3-methyl-4,4,7-trioxo-4-thia-1-aza-bicyclo[3.2.0]heptane-2-carboxylic acid (below named “compound X”), enhances the antibacterial activity of compounds I against highly resistant strains of Graem-positive bacterias, e.g. methicillin-resistant strains of Staphylococcus aureus.

Another experiment deals with S. aureus SPO-19 (MRSA). The description is as above. Format: cell-based, Staphylococcus aureus. The conditions noted are these: inoculum 10^5 CFU/spot; for MIC: Staphylococcus aureus, MRSA.
From the text: as §2

Where [1] appears, read: Enterococcus faecalis, read-out: MIC.
Setting [2] is: Staphylococcus aureus, read-out: MIC.
[3] abbreviates: Streptococcus pneumoniae, read-out: MIC.
Setting [4] is: in combination with Imipenem (4 μg/ml).
[5] abbreviates: in combination with Compound X (μg/ml, concentration not given).

≈ marks a conversion by molar mass, not a printed value. Read-outs that look alike come from different tables or passages of the source.

As usually defined, the MIC is the least concentration at which growth counts as inhibited. For `O=C(CSc1nc2ccccc2s1)N[C@@H]1C(=O)N2C(C(=O)[O-])=C(/C=C/C[n+]3ccccc3)CS[C@H]12` [Example 2, (E)-(6R,7R)-7-[2-(benzothiazol-2-ylsulfanyl)-acetylamino]-8-oxo-3-(3-pyridin-1-ium-1-yl-propenyl)-5-thia-1-aza-bicyclo[4.2.0]oct-2-ene-2-carboxylate], the MIC is 2 µg/mL (≈ 3.81 µM) in the experiment with E. faecalis 6 (setting [1]), 2 µg/mL (≈ 3.81 µM) in the experiment on S. aureus 270A (MRSA) (setting [2]), < 0.1 µg/mL with S. aureus 6538 (MSSA) (setting [2]) and < 0.1 µg/mL in the experiment with S. pneumoniae 907 (setting [3]).

For `Cc1cccc[n+]1C/C=C/C1=C(C(=O)[O-])N2C(=O)[C@@H](NC(=O)CSc3ccc4ccccc4c3)[C@H]2SC1` [Example 7, (E)-(6R,7R)-3-[3-(2-Methyl-pyridin-1-ium-1-yl)-propenyl]-7-[2-(naphthalen-2-ylsulfanyl)-acetylamino]-8-oxo-5-thia-1-aza-bicyclo[4.2.0]oct-2-ene-2-carboxylate], the MIC is 1 µg/mL (≈ 1.88 µM) in the experiment with E. faecalis 6 (setting [1]), 2 µg/mL (≈ 3.76 µM) with S. aureus 270A (MRSA) (setting [2]), < 0.1 µg/mL in the experiment with S. aureus 6538 (MSSA) (setting [2]) and < 0.1 µg/mL in the experiment on S. pneumoniae 907 (setting [3]).

On to `C[N+](C)(C/C=C/C1=C(C(=O)[O-])N2C(=O)[C@@H](NC(=O)CSc3nc4ccccc4s3)[C@H]2SC1)CCO` [Example 41, (E)-(6R,7R)-3-[3-[Dimethyl-(2-hydroxy-ethyl)-ammonio]-propenyl]-7-[2-(benzothiazol-2-ylsulfanyl)-acetylamino]-8-oxo-5-thias1-aza-bicyclo[4.2.0]oct-2-ene-2-carboxylate], for which the MIC in the experiment with E. faecalis 6 is 1 µg/mL (≈ 1.87 µM); in the experiment with S. aureus 270A (MRSA), 4 µg/mL (≈ 7.48 µM); with S. aureus 6538 (MSSA), <0.1 µg/mL; with S. pneumoniae 907, <0.1 µg/mL.

In the case of `C[N+]1(C/C=C/C2=C(C(=O)[O-])N3C(=O)[C@@H](NC(=O)CSc4ccc5ccccc5c4)[C@H]3SC2)CCCC1` [Example 15], the minimum inhibitory concentration (MIC) was 0.5 µg/mL (≈ 0.955 µM) in the experiment with E. faecalis 6, 2 µg/mL (≈ 3.82 µM) in the experiment on S. aureus 270A (MRSA), <0.1 µg/mL against S. aureus 6538 (MSSA) and <0.1 µg/mL against S. pneumoniae 907.

Turning to `C[C@@H](O)[C@H]1C(=O)N2C(C(=O)O)=C(SCCN=CN)C[C@H]12` [Imipenem, imipenem, reference compound], the MIC in the experiment on S. aureus 42080 (MRSA) (compound alone) and in the experiment with S. aureus SPO-19 (MRSA) (compound alone) was > 16 µg/mL in each case.

On to `C[N+](C)(C/C=C/C1=C(C(=O)[O-])N2C(=O)[C@@H](NC(=O)CSc3ccc4cc(C(=O)O)ccc4c3)[C@H]2SC1)CC(N)=O` [Example 99], for which the MIC against E. faecalis 6 was 4 µg/mL (≈ 6.84 µM); against S. aureus 270A (MRSA), 2 µg/mL (≈ 3.42 µM); in the experiment on S. aureus 6538 (MSSA), <0.1 µg/mL; in the experiment with S. pneumoniae 907 it was <0.1 µg/mL.

As for `O=C(CSc1ccc2ccccc2c1)N[C@@H]1C(=O)N2C(C(=O)[O-])=C(/C=C/C[N+]34CCN(CC3)CC4)CS[C@H]12` [Example 59, (E)-(6R,7R)-3-[3-(4-Aza-1-azonia-bicyclo[2,2,2]octan-1-yl)-propenyl]-7-[2-(naphthalen-2-ylsulfanyl)-acetylamino]-8-oxo-5-thia-1-aza-bicyclo[4.2.0]oct-2-ene-2-carboxylate], the minimum inhibitory concentration (MIC) with E. faecalis 6 (setting [1]) is 2 µg/mL (≈ 3.63 µM); with S. aureus 270A (MRSA) (setting [2]) it was 2 µg/mL (≈ 3.63 µM); with S. aureus 6538 (MSSA) (setting [2]), < 0.1 µg/mL; in the experiment on S. pneumoniae 907 (setting [3]), < 0.1 µg/mL; in the experiment with S. aureus 42080 (MRSA) (compound alone), 4 µg/mL; in the experiment with S. aureus SPO-19 (MRSA) (compound alone), 4 µg/mL. Also, the entries for the “MIC against MRSA” value in the experiment with S. aureus 42080 (MRSA) (setting [4]) and in the experiment on S. aureus SPO-19 (MRSA) (setting [4]) were 2 µg/mL and 1 µg/mL, respectively.

As for `C[N+](C)(C/C=C/C1=C(C(=O)[O-])N2C(=O)[C@@H](NC(=O)CSc3ccc4ccccc4c3)[C@H]2SC1)CCCO` [Example 62, (E)-(6R,7R)-3-[3-[(3-Hydroxy-propyl)-dimethyl-ammonio]-propenyl]-7-[2-(naphthalen-2-ylsulfanyl)-acetylamino]-8-oxo-5-thia-1-aza-bicyclo[4.2.0]oct-2-ene-2-carboxylate], the MIC with E. faecalis 6 (setting [1]) is 1 µg/mL (≈ 1.85 µM); in the experiment with S. aureus 270A (MRSA) (setting [2]) it was 2 µg/mL (≈ 3.69 µM); in the experiment with S. aureus 6538 (MSSA) (setting [2]) it was < 0.1 µg/mL; in the experiment on S. pneumoniae 907 (setting [3]), < 0.1 µg/mL; in the experiment with S. aureus 42080 (MRSA) (compound alone), 4 µg/mL; in the experiment with S. aureus SPO-19 (MRSA) (compound alone), 2 µg/mL. Also, the “MIC against MRSA” value in the experiment with S. aureus 42080 (MRSA) (setting [4]) amounted to 2 µg/mL; in the experiment on S. aureus SPO-19 (MRSA) (setting [4]), 1 µg/mL.

As for “(E)-(6R,7R)-8-Oxo-3-(3-pyridin-1-ium-1-yl-propenyl)-7-[2-(2,4,5-trichlorophenylsulfanyl)-acetylamino]-5-thia-1-aza-bicyclo[4.2.0]oct-2-ene-2-carboxylate [Example 6]”, the MIC against E. faecalis 6 is 0.25 µg/mL; in the experiment with S. aureus 270A (MRSA) it was 1 µg/mL; against S. aureus 6538 (MSSA), <0.1 µg/mL; with S. pneumoniae 907, <0.1 µg/mL. The “MIC against MRSA” value was 8 µg/mL with S. aureus 42080 (MRSA) (compound alone), 1 µg/mL in the experiment on S. aureus 42080 (MRSA) (setting [4]), 4 µg/mL with S. aureus SPO-19 (MRSA) (compound alone) and 0.5 µg/mL with S. aureus SPO-19 (MRSA) (setting [4]).

For the compound `C[N+](C)(C/C=C/C1=C(C(=O)[O-])N2C(=O)[C@@H](NC(=O)CSc3ccc4ccccc4c3)[C@H]2SC1)CC(N)=O` [Example 19, (E)-(6R,7R)-3-[3-(Carbamoylmethyl-dimethyl-ammonio)-propenyl]-7-[2-(naphtalen-2-ylsulfanyl)-acetylamino]-8-oxo-5-thia-1-aza-bicyclo[4.2.0]oct-2-ene-2-carboxylate], the MIC was 0.5 µg/mL (≈ 0.925 µM) in the experiment with E. faecalis 6, 1 µg/mL (≈ 1.85 µM) with S. aureus 270A (MRSA), <0.1 µg/mL with S. aureus 6538 (MSSA) and <0.1 µg/mL in the experiment with S. pneumoniae 907.

For the compound `C[N+](C)(C/C=C/C1=C(C(=O)[O-])N2C(=O)[C@@H](NC(=O)CSc3nc4ccccc4s3)[C@H]2SC1)C(CO)CO` [Example 67, (E)-(6R,7R)-7-[2-(Benzothiazol-2-ylsulfanyl)-acetylamino]-8-oxo-3-[3-[(2-hydroxy-1-hydroxymethyl-ethyl)-dimethyl-ammonio]-propenyl]-5-thia-1-aza-bicyclo[4.2.0]oct-2-ene-2-carboxylate], the minimum inhibitory concentration (MIC) is 1 µg/mL (≈ 1.77 µM) in the experiment with E. faecalis 6 (setting [1]), 2 µg/mL (≈ 3.54 µM) with S. aureus 270A (MRSA) (setting [2]), < 0.1 µg/mL in the experiment on S. aureus 6538 (MSSA) (setting [2]) and < 0.1 µg/mL in the experiment on S. pneumoniae 907 (setting [3]).

As to `O=C(CSc1ccc2ccccc2c1)N[C@@H]1C(=O)N2C(C(=O)[O-])=C(/C=C/C[n+]3ccccc3)CS[C@H]12` [Example 22, (E)-(6R,7R)-7-[2-(naphthalen-2-ylsulfanyl)-acetylamino]-8-oxo-3-(3-pyridin-1-ium-1-yl-propenyl)-5-thia-1-aza-bicyclo[4.2.0]oct-2-ene-2-carboxylate], the MIC in the experiment with E. faecalis 6 (setting [1]) was 0.5 µg/mL (≈ 0.966 µM); with S. aureus 270A (MRSA) (setting [2]), 1 µg/mL (≈ 1.93 µM); in the experiment with S. aureus 6538 (MSSA) (setting [2]), < 0.1 µg/mL; in the experiment with S. pneumoniae 907 (setting [3]), < 0.1 µg/mL; with S. aureus 42080 (MRSA) (compound alone), 4 µg/mL; in the experiment on S. aureus SPO-19 (MRSA) (compound alone), 4 µg/mL. For the same compound, the “MIC against MRSA” value in the experiment on S. aureus 42080 (MRSA) (setting [5]) came to 1 µg/mL; with S. aureus 42080 (MRSA) (setting [4]) it was 1 µg/mL; with S. aureus SPO-19 (MRSA) (setting [5]), 0.5 µg/mL; in the experiment with S. aureus SPO-19 (MRSA) (setting [4]) it was 1 µg/mL.

For `O=C(CSc1ccc2ccccc2c1)N[C@@H]1C(=O)N2C(C(=O)[O-])=C(/C=C/C[n+]3cccc(O)c3)CS[C@H]12` [Example 9, (E)-(6R,7R)-3-[3-(3-Hydroxy-pyridin-1-ium-1-yl)-propenyl]-7-[2-(naphtalen-2-ylsulfanyl)-acetylamino]-8-oxo-5-thia-1-aza-bicyclo[4.2.0]oct-2-ene-2-carboxylate], the MIC in the experiment with E. faecalis 6 was 0.5 µg/mL (≈ 0.937 µM); in the experiment on S. aureus 270A (MRSA), 2 µg/mL (≈ 3.75 µM); in the experiment on S. aureus 6538 (MSSA), <0.1 µg/mL; in the experiment with S. pneumoniae 907 it was <0.1 µg/mL.

For `O=C(CSc1ccc2ccccc2c1)N[C@@H]1C(=O)N2C(C(=O)[O-])=C(/C=C/C[n+]3cccc4ccccc43)CS[C@H]12` [Example 13, (E)-(6R,7R)-7-[2-(Naphthalen-2-ylsulfanyl)-acetylamino]-8-oxo-3-(3-quinolin-1-ium-1-yl-propenyl)-5-thia-1-aza-bicyclo[4.2.0]oct-2-ene-2-carboxylate], the MIC with E. faecalis 6 (setting [1]) was 0.25 µg/mL (≈ 0.44 µM); in the experiment with S. aureus 270A (MRSA) (setting [2]) it was 1 µg/mL (≈ 1.76 µM); with S. aureus 6538 (MSSA) (setting [2]) it was < 0.1 µg/mL; in the experiment on S. pneumoniae 907 (setting [3]) it was < 0.1 µg/mL.

For the origin of these results see patent publication US6583133B1, “Propenyl cephalosporin derivatives and process for the manufacture thereof” (Basilea Pharmaceutica AG, priority 1998, dated 2003).
